Reference: publication PMC12028158, “Synthesis and In Vitro Evaluation of the Anticancer Effect of Novel Phosphonium Vindoline Derivatives” (International Journal of Molecular Sciences, 2025)
Like-named read-outs stand apart in the source and are kept apart here.

Experiments:
Type in all cases: cell-based
SR [1] = test: NCI60 five-dose screen; conditions: Homo sapiens
HOP-62 [2] = test: NCI60 five-dose screen; conditions: Homo sapiens
NCI-H23 = test: NCI60 five-dose screen; conditions: Homo sapiens
HT29 = test: NCI60 five-dose screen; conditions: Homo sapiens, HT-29
SW-620 = test: NCI60 five-dose screen; conditions: Homo sapiens
SF-295 [3] = test: NCI60 five-dose screen; conditions: Homo sapiens
LOX IMVI = test: NCI60 five-dose screen; conditions: Homo sapiens
SK-MEL-5 = test: NCI60 five-dose screen; conditions: Homo sapiens
OVCAR-3 = test: NCI60 five-dose screen; conditions: Homo sapiens
786-0 = test: NCI60 five-dose screen; conditions: Homo sapiens
PC-3 = test: NCI60 five-dose screen; conditions: Homo sapiens
DU-145 = test: NCI60 five-dose screen; conditions: Homo sapiens
T-47D = test: NCI60 five-dose screen; conditions: Homo sapiens, T47D
MDA-MB-468 = test: NCI60 five-dose screen; conditions: Homo sapiens
HL-60(TB) = test: NCI60 one-dose screen; conditions: Homo sapiens
K-562 = test: NCI60 one-dose screen; conditions: Homo sapiens
MOLT-4 = test: NCI60 one-dose screen; conditions: Homo sapiens
SR [4] = test: NCI60 one-dose screen; conditions: Homo sapiens, read-out: Growth percent
A549/ATCC = test: NCI60 one-dose screen; conditions: Homo sapiens
HOP-62 [5] = test: NCI60 one-dose screen; conditions: Homo sapiens
NCI-H322M = test: NCI60 one-dose screen; conditions: Homo sapiens, read-out: Growth percent
HCT-116 = test: NCI60 one-dose screen; conditions: Homo sapiens
KM12 = test: NCI60 one-dose screen; conditions: Homo sapiens
SF-268 = test: NCI60 one-dose screen; conditions: Homo sapiens
SF-295 [6] = test: NCI60 one-dose screen; conditions: Homo sapiens
SNB-19 = test: NCI60 one-dose screen; conditions: Homo sapiens
M14 = test: NCI60 one-dose screen; conditions: Homo sapiens
MDA-MB-435 = test: NCI60 one-dose screen; conditions: Homo sapiens
SK-MEL-28 = test: NCI60 one-dose screen; conditions: Homo sapiens
A498 = test: NCI60 one-dose screen; conditions: Homo sapiens
ACHN = test: NCI60 one-dose screen; conditions: Homo sapiens, read-out: Growth percent
UO-31 = test: NCI60 one-dose screen; conditions: Homo sapiens
HS 578T = test: NCI60 one-dose screen; conditions: Homo sapiens, read-out: Growth percent

SMILES: CCC12C=CCN3CCC4(c5ccc(OC)cc5N(C)C4C(O)(C(=O)OC)C1OC(=O)CCC[P+](c1ccc(C)cc1)(c1ccc(C)cc1)c1ccc(C)cc1)C32 (stereo not drawn) [9a]
- GI50 (SR [1]): 281 nM
- GI50 (HOP-62 [2]; HOP-62): 470 nM
- GI50 (NCI-H23; NCI-H23): 303 nM
- GI50 (HT29): 219 nM
- GI50 (SW-620; SW-620): 434 nM
- GI50 (SF-295 [3]; SF-295): 521 nM
- GI50 (LOX IMVI): 333 nM
- GI50 (SK-MEL-5; SK-MEL-5): 532 nM
- GI50 (OVCAR-3; OVCAR-3): 374 nM
- GI50 (786-0; 786-0): 1060 nM
- GI50 (PC-3; PC-3): 310 nM
- GI50 (DU-145; DU-145): 457 nM
- GI50 (T-47D): 314 nM
- GI50 (MDA-MB-468; MDA-MB-468): 165 nM
- activity at 10 µM (HL-60(TB); HL-60, read-out: Growth percent): -47.5%
- activity at 10 µM (K-562; K562, read-out: Growth percent): -13.1%
- activity at 10 µM (MOLT-4; MOLT-4, read-out: Growth percent): -45.1%
- activity at 10 µM (SR [4]): 5.74%
- activity at 10 µM (A549/ATCC; A549, read-out: Growth percent): -90.3%
- activity at 10 µM (HOP-62 [5]; HOP-62, read-out: Growth percent): -81.6%
- activity at 10 µM (NCI-H322M): -98.4%
- activity at 10 µM (HCT-116; HCT-116, read-out: Growth percent): -93.4%
- activity at 10 µM (KM12; KM12, read-out: Growth percent): -76.1%
- activity at 10 µM (SF-268; SF-268, read-out: Growth percent): -46.3%
- activity at 10 µM (SF-295 [6]; SF-295, read-out: Growth percent): -89.1%
- activity at 10 µM (SNB-19; SNB-19, read-out: Growth percent): -97.3%
- activity at 10 µM (M14; M14, read-out: Growth percent): -85.3%
- activity at 10 µM (MDA-MB-435; MDA-MB-435, read-out: Growth percent): -57.5%
- activity at 10 µM (SK-MEL-28; SK-MEL-28, read-out: Growth percent): -96.6%
- activity at 10 µM (A498; A498, read-out: Growth percent): -88.6%
- activity at 10 µM (ACHN): -97.8%
- activity at 10 µM (UO-31; UO-31, read-out: Growth percent): -97.4%
- activity at 10 µM (HS 578T; Hs-578T): -60.3%

SMILES: CC[C@]12C=CCN3CC[C@@]4(c5ccc(OC)cc5N(C)[C@H]4[C@@](O)(C(=O)OC)[C@@H]1OC(=O)CCC[P+](c1ccc(OC)cc1)(c1ccc(OC)cc1)c1ccc(OC)cc1)[C@@H]32 [9b]
- GI50 (SR [1]; Leukemia, five-dose, read-out: GI50): 389 nM
- GI50 (HOP-62 [2]; HOP-62, Non-small Cell Lung Cancer, five-dose, read-out: GI50): 1660 nM
- GI50 (NCI-H23; NCI-H23, Non-small Cell Lung Cancer, five-dose, read-out: GI50): 671 nM
- GI50 (HT29; HT29, Colon Cancer, five-dose, read-out: GI50): 371 nM
- GI50 (SW-620; SW-620, Colon Cancer, five-dose, read-out: GI50): 844 nM
- GI50 (SF-295 [3]; SF-295, CNS Cancer, five-dose, read-out: GI50): 1920 nM
- GI50 (LOX IMVI; Melanoma, five-dose, read-out: GI50): 614 nM
- GI50 (SK-MEL-5; SK-MEL-5, Melanoma, five-dose, read-out: GI50): 1550 nM
- GI50 (OVCAR-3; OVCAR-3, Ovarian Cancer, five-dose, read-out: GI50): 624 nM
- GI50 (786-0; 786-0, Renal Cancer, five-dose, read-out: GI50): 1930 nM
- GI50 (PC-3; PC-3, Prostate Cancer, five-dose, read-out: GI50): 470 nM
- GI50 (DU-145; DU-145, Prostate Cancer, five-dose, read-out: GI50): 955 nM
- GI50 (T-47D; T-47D, Breast Cancer, five-dose, read-out: GI50): 353 nM
- GI50 (MDA-MB-468; MDA-MB-468, MDA-MB-468, Breast Cancer, five-dose, read-out: GI50): 241 nM
- activity at 10 µM (HL-60(TB); HL-60(TB), 10 μM, one-dose, read-out: Growth percent): -39.6%
- activity at 10 µM (K-562; K562, K-562, 10 μM, one-dose, read-out: Growth percent): -1.75%
- activity at 10 µM (MOLT-4; MOLT-4, 10 μM, one-dose, read-out: Growth percent): -36.8%
- activity at 10 µM (SR [4]; 10 μM, one-dose): 15%
- activity at 10 µM (A549/ATCC; A549/ATCC, 10 μM, one-dose, read-out: Growth percent): -91.4%
- activity at 10 µM (HOP-62 [5]; HOP-62, 10 μM, one-dose, read-out: Growth percent): -81.5%
- activity at 10 µM (NCI-H322M; 10 μM, one-dose): -97.7%
- activity at 10 µM (HCT-116; HCT-116, 10 μM, one-dose, read-out: Growth percent): -68.8%
- activity at 10 µM (KM12; KM12, 10 μM, one-dose, read-out: Growth percent): -65.3%
- activity at 10 µM (SF-268; SF-268, 10 μM, one-dose, read-out: Growth percent): -34.3%
- activity at 10 µM (SF-295 [6]; SF-295, 10 μM, one-dose, read-out: Growth percent): -93.7%
- activity at 10 µM (SNB-19; SNB-19, 10 μM, one-dose, read-out: Growth percent): -96.7%
- activity at 10 µM (M14; M14, 10 μM, one-dose, read-out: Growth percent): -88.4%
- activity at 10 µM (MDA-MB-435; MDA-MB-435, 10 μM, one-dose, read-out: Growth percent): -76.9%
- activity at 10 µM (SK-MEL-28; SK-MEL-28, 10 μM, one-dose, read-out: Growth percent): -96.3%
- activity at 10 µM (A498; A498, 10 μM, one-dose, read-out: Growth percent): -83.2%
- activity at 10 µM (ACHN; 10 μM, one-dose): -95.8%
- activity at 10 µM (UO-31; UO-31, 10 μM, one-dose, read-out: Growth percent): -56.8%
- activity at 10 µM (HS 578T; HS 578T, 10 μM, one-dose): -65.4%
